Results as given in patent EP2975030B1, “DIHYDROPYRIDAZINE-3,5-DIONE DERIVATIVE” (Chugai Seiyaku Kabushiki Kaisha, priority 2013, dated 2014).

Tests used:
[1] = tested on: rat small-intestinal brush border membrane vesicles; assay: Inhibitory effect on 33PO4 uptake into rat small-intestinal brush border membrane vesicles (rapid filtration method); assay type: biochemical, Wistar female rat; details: 1 µM test compound; 33PO4 uptake into rat small-intestinal BBMVs, 60 seconds
Summary of the method: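 33PO4 uptake into rat small-intestinal brush border membrane vesicles measured by rapid filtration. Reactions were stopped with ice-cold buffer (110 mM NaCl, 1 mM KH2PO4, 10 mM HEPES pH 7.5), filtered and washed. Vesicle-associated radioactivity was counted by liquid scintillation.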

[2] = tested on: adenine-induced renal failure rat; assay: Suppressive effect on rise in serum phosphorus concentration of adenine-induced renal failure rat (0.05% in feed, 8 days); assay type: in vivo, Wistar male rat; details: rate of suppression of a rise in serum phosphorus concentration, 0.05% of mass concentration in feed
Protocol: Test Example 6: Suppressive effect on rise in serum phosphorus concentration of adenine-induced renal failure rat
Each adenine-induced renal failure rat was prepared in the same way as in Test Example 5. Each test compound was mixed at a ratio of 0.05% of mass concentration with feed. The animal was fed with a given amount of the feed for 8 days. A group given feed non-supplemented with a test compound was used as a reference pathological group, and an adenine-unadministered group given feed non-supplemented with a test compound was used as a normal group. 8 days after the start of administration of the test compound, blood was collected from the jugular vein, and serum was collected. Serum phosphorus concentrations were measured by the Fiske-Subbarow method. The rate of suppression of a rise in serum phosphorus concentration was determined according to the following expression: Rate (%) of supression of a rise in serum phosphorus concentration = (1−[(Serumphosphorusconcentrationofthetestcompound−treatedpathologicalgroup)−(Serumphosphorusconcentrationofthenormalgroup)]/[(Serumphosphorusconcentrationofthereferencepathologicalgroup)−(Serumphosphorusconcentrationofthenormalgroup)]) × 100 [formula]
As a result, each test compound was confirmed to have a suppressive effect on a rise in serum phosphorus concentration. […]

SMILES	Rate of uptake inhibition (%) (1 µM) [1]	Rate of inhibition (%) [2]
CN(C[C@H](O)[C@@H](O)[C@H](O)[C@H](O)CO)C(=O)CCCOc1ccc(CN2C(=O)C(C(=O)Nc3ccc(C(F)(F)F)cc3-c3cc(C(F)(F)F)ncn3)=C(O)C3(CCCC3)N2C)c(F)c1F [Example 418, 7-[[2,3-Difluoro-4-[4-[methyl-[(2S,3R,4R,5R)-2,3,4,5,6-pentahydroxyhexyl]amino]-4-oxobutoxy]phenyl]methyl]-10-hydroxy-6-methyl-8-oxo-N-[4-(trifluoromethyl)-2-[6-(trifluoromethyl)pyrimidin-4-yl]phenyl]-6,7-diazaspiro[4.5]dec-9-ene-9-carboxamide]	29%	38%
CN(C)CC(C)(C)COc1ccc(CN2C(=O)C(C(=O)Nc3ccc(C(F)(F)F)cc3-c3cc(C(F)(F)F)ncn3)=C(O)C3(CCCC3)N2C)c(F)c1F [Example 414, 7-(4-(3-(Dimethylamino)-2,2-dimethylpropoxy)-2,3-difluorobenzyl)-10-hydroxy-6-methyl-8-oxo-N-(4-(trifluoromethyl)-2-(6-(trifluoromethyl)pyrimidin-4-yl)phenyl)-6,7-diazaspiro[4.5]dec-9-ene-9-carboxamide]	27%	37%
